Experiment: molar heat capacity at constant pressure
Details: 101.33 kPa, Vacuum adiabatic calorimetry

O=P([O-])([O-])[O-].[Cs+].[Mn+2] [cesium manganese(II) phosphate]
molar heat capacity at constant pressure [J/K/mol]
Details | Crystal 1 | Crystal 2
87.44 K | – | 66.08
89.1 K | – | 66.98
90 K | – | 67.48
92.52 K | – | 68.77
95.06 K | – | 70.08
97.6 K | – | 71.4
99.96 K | – | 72.65
100 K | – | 72.69
102.68 K | – | 74.12
105.79 K | – | 75.84
108.49 K | – | 77.53
110 K | – | 78.18
110.3 K | – | 78.39
111.89 K | – | 79.04
112.89 K | – | 79.62
113.69 K | – | 80.09
115.29 K | – | 81.13
116.83 K | – | 82.04
118.24 K | – | 82.7
119.21 K | – | 83.23
120 K | – | 83.73
120.39 K | – | 84.89
123.17 K | – | 91.87
124.56 K | – | 100.77
125.56 K | – | 106.26
126.99 K | – | 117.73
127 K | 86.55 | 86.55
128.36 K | 113.16 | –
128.73 K | 107.76 | –
130 K | 87.8 | –
130.58 K | 93.29 | –
131.88 K | 89.3 | –
132.69 K | 88.3 | –
133.47 K | 88.38 | –
134.22 K | 88.8 | –
135.31 K | 89.3 | –
136.46 K | 89.88 | –
137.83 K | 90.46 | –
138.61 K | 90.79 | –
139.44 K | 91.13 | –
140 K | 91.54 | –
140.05 K | 91.46 | –
141.84 K | 92.21 | –
143.65 K | 92.87 | –
146.58 K | 93.95 | –
149.52 K | 95.03 | –
150 K | 95.37 | –
152.45 K | 96.2 | –
155.39 K | 97.36 | –
158.13 K | 98.36 | –
160 K | 99.03 | –
160.88 K | 99.36 | –
163.62 K | 100.44 | –
166.37 K | 101.44 | –
168.91 K | 102.35 | –
170 K | 102.68 | –
171.45 K | 103.27 | –
174.38 K | 104.26 | –
177.32 K | 105.26 | –
180 K | 106.18 | –
180.25 K | 106.26 | –
183.19 K | 107.26 | –
186.12 K | 108.17 | –
189.06 K | 109.17 | –
190 K | 109.58 | –
191.79 K | 110.08 | –
194.53 K | 111 | –
197.27 K | 111.91 | –
199.58 K | 112.58 | –
200 K | 112.74 | –
201.38 K | 113.08 | –
203.92 K | 113.83 | –
206.38 K | 114.57 | –
209.38 K | 115.65 | –
210 K | 115.82 | –
212.32 K | 116.57 | –
215.39 K | 117.48 | –
218.18 K | 118.31 | –
219.88 K | 118.73 | –
220 K | 118.81 | –
221.58 K | 119.23 | –
224.09 K | 119.98 | –
226.59 K | 120.73 | –
229.5 K | 121.56 | –
230 K | 121.56 | –
232.41 K | 122.39 | –
235.32 K | 123.3 | –
238.23 K | 124.22 | –
240 K | 124.3 | –

Source: the NIST ThermoML archive (doi:10.1016/j.jct.2014.06.012)
